Test results taken from patent US9302999B2, “Substituted triazoles as herbicides” (E. I. DU PONT DE NEMOURS AND COMPANY, priority 2012, dated 2016).

How the values were obtained:
Assay type in all cases: in vivo
[1] = test system: barnyardgrass (Echinochloa crus-galli); test: Test A pre-/postemergence: barnyardgrass; conditions: for Barnyardgrass plant response rating: Postemergence; for Plant response rating, Barnyardgrass: Preemergence
In short: (§1)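 Rating scale 0–100 (100 = complete control), visual, ~10 days after application in the greenhouse. Applications: preemergence directed soil spray; postemergence at 1–2 leaves.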

[2] = test system: crabgrass, large (large crabgrass, Digitaria sanguinalis); test: Test A pre-/postemergence: crabgrass, large; conditions: for Crabgrass, Large plant response rating: Postemergence; for Plant response rating, Crabgrass, Large: Preemergence
In short: as §1

[3] = test system: foxtail, giant (giant foxtail, Setaria faberii); test: Test A pre-/postemergence: foxtail, giant; conditions: for Foxtail, Giant plant response rating: Postemergence; for Plant response rating, Foxtail, Giant: Preemergence
In short: as §1

[4] = test system: morningglory (Ipomoea spp.); test: Test A pre-/postemergence: morningglory; conditions: for Morningglory plant response rating: Postemergence; for Plant response rating, Morningglory: Preemergence
In short: as §1

[5] = test system: pigweed (Amaranthus retroflexus); test: Test A pre-/postemergence: pigweed; conditions: for Pigweed plant response rating: Postemergence; for Plant response rating, Pigweed: Preemergence
In short: as §1

[6] = test system: velvetleaf (Abutilon theophrasti); test: Test A pre-/postemergence: velvetleaf; conditions: for Velvetleaf plant response rating: Postemergence; for Plant response rating, Velvetleaf: Preemergence
In short: as §1

[7] = test system: wheat (Triticum aestivum); test: Test A pre-/postemergence: wheat; conditions: for Wheat plant response rating: Postemergence; for Plant response rating, Wheat: Preemergence
In short: as §1

corn (Zea mays) = test: Test A pre-/postemergence: corn; conditions: for Corn plant response rating: Postemergence; for Plant response rating, Corn: Preemergence
In short: as §1

rice (Oryza sativa) [8] = test: Test B flooded paddy: rice; conditions: Flood; 250 g ai/ha; applied to paddy water at 2-leaf stage; visually evaluated after 13 to 15 days
Method: (§2) Seeds selected from rice (Oryza sativa), sedge, umbrella (small-flower umbrella sedge Cyperus difformis), ducksalad (Heteranthera limosa), and barnyardgrass (Echinochloa crus-galli) were grown to the 2-leaf stage for testing. At time of treatment, test pots were flooded to 3 cm above the soil surface, treated by application of test compounds directly to the paddy water, and then maintained at that water depth for the duration of the test.
(§3) Treated plants and controls were maintained in a greenhouse for 13 to 15 days, after which time all species were compared to controls and visually evaluated. Plant response ratings, summarized in Table B, are based on a scale of 0 to 100 where 0 is no effect and 100 is complete control. A dash (-) response means no test result.

[9] = test system: sedge, umbrella (small-flower umbrella sedge Cyperus difformis); test: Test B flooded paddy: sedge, umbrella; conditions: Flood; 250 g ai/ha; applied to paddy water at 2-leaf stage; visually evaluated after 13 to 15 days
Method: as §2, §3

[10] = test system: ducksalad (Heteranthera limosa); test: Test B flooded paddy: ducksalad; conditions: Flood; 250 g ai/ha; applied to paddy water at 2-leaf stage; visually evaluated after 13 to 15 days
Method: as §2, §3

[11] = test system: barnyardgrass (Echinochloa crus-galli); test: Test B flooded paddy: barnyardgrass; conditions: Flood; 250 g ai/ha; applied to paddy water at 2-leaf stage; visually evaluated after 13 to 15 days
Method: as §2, §3

rice (Oryza sativa) [12] = test: Test C flooded paddy test: rice; conditions: scale 0 to 100 (0 no effect, 100 complete control)
In short: (§4)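 Rating: visual, 0–100 (100 = complete control), versus untreated controls after 13 to 15 greenhouse days. Treatment went into paddy water held at 3 cm over the soil, on plants grown to two leaves.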

[13] = test system: sedge, umbrella (small-flower umbrella sedge, Cyperus difformis); test: Test C flooded paddy test: sedge, umbrella; conditions: scale 0 to 100 (0 no effect, 100 complete control)
In short: as §4

[14] = test system: ducksalad (Heteranthera limosa); test: Test C flooded paddy test: ducksalad; conditions: scale 0 to 100 (0 no effect, 100 complete control)
In short: as §4

[15] = test system: barnyardgrass (Echinochloa crus-galli); test: Test C flooded paddy test: barnyardgrass; conditions: scale 0 to 100 (0 no effect, 100 complete control)
In short: as §4

[16] = 125 g ai/ha, 0 to 100 scale, 0 is no effect, 100 is complete control
[17] = 500 g ai/ha, visual rating on 0 to 100 scale (0 no effect, 100 complete control), approximately ten days
[18] = 125 g ai/ha, 0 to 100 scale (0 no effect, 100 complete control)
[19] = 500 g ai/ha, 0 to 100 scale, 0 is no effect, 100 is complete control
[20] = 125 g ai/ha, 0 to 100 scale where 0 is no effect and 100 is complete control
[21] = 500 g ai/ha, 0 to 100 scale (0 no effect, 100 complete control)
[22] = Flood (flooded paddy test), 125 g ai/ha, visual rating after 13 to 15 days
[23] = Flood (flooded paddy test), 250 g ai/ha, visual rating after 13 to 15 days

Cc1nn(-c2ccnc(F)c2)nc1C(=O)c1cccc(C(F)(F)F)c1 [Compound 3]
Barnyardgrass plant response rating [1, 16]: 30
Barnyardgrass plant response rating [1, 17]: 50
Plant response rating, Barnyardgrass [1, 18]: 10
Plant response rating, Barnyardgrass [1, 19]: 50
Crabgrass, Large plant response rating [2, 16]: 40
Crabgrass, Large plant response rating [2, 17]: 90
Plant response rating, Crabgrass, Large [2, 18]: 90
Plant response rating, Crabgrass, Large [2, 19]: 100
Foxtail, Giant plant response rating [3, 16]: 30
Foxtail, Giant plant response rating [3, 17]: 90
Plant response rating, Foxtail, Giant [3, 18]: 90
Plant response rating, Foxtail, Giant [3, 19]: 100
Morningglory plant response rating [4, 16]: 30
Morningglory plant response rating [4, 17]: 100
Plant response rating, Morningglory [4, 18]: 0
Plant response rating, Morningglory [4, 19]: 50
Pigweed plant response rating [5, 16]: 90
Pigweed plant response rating [5, 17]: 100
Plant response rating, Pigweed [5, 18]: 70
Plant response rating, Pigweed [5, 19]: 100
Velvetleaf plant response rating [6, 16]: 50
Velvetleaf plant response rating [6, 17]: 60
Plant response rating, Velvetleaf [6, 18]: 0
Plant response rating, Velvetleaf [6, 19]: 10
Wheat plant response rating [7, 16]: 30
Wheat plant response rating [7, 17]: 40
Plant response rating, Wheat [7, 18]: 0
Plant response rating, Wheat [7, 19]: 40
Corn plant response rating (corn (Zea mays); [16]): 20
Corn plant response rating (corn (Zea mays); [17]): 30
Plant response rating, Corn (corn (Zea mays); [18]): 0
Plant response rating, Corn (corn (Zea mays); [19]): 10
Plant response rating, Rice (0 to 100 scale, 0 is no effect, 100 is complete control) (rice (Oryza sativa) [8]): 0
Plant response rating, Sedge, Umbrella (0 to 100 scale, 0 is no effect, 100 is complete control) [9]: 0
Plant response rating, Ducksalad (0 to 100 scale, 0 is no effect, 100 is complete control) [10]: 0
Plant response rating, Barnyardgrass (0 to 100 scale, 0 is no effect, 100 is complete control) [11]: 0

Cc1nn(-c2ccnc(Cl)c2)nc1C(=O)c1cccc(C(F)(F)F)c1 [Compound 4]
Barnyardgrass plant response rating [1, 16]: 20
Barnyardgrass plant response rating [1, 17]: 30
Plant response rating, Barnyardgrass [1, 18]: 10
Plant response rating, Barnyardgrass [1, 19]: 60
Crabgrass, Large plant response rating [2, 16]: 30
Crabgrass, Large plant response rating [2, 17]: 70
Plant response rating, Crabgrass, Large [2, 18]: 80
Plant response rating, Crabgrass, Large [2, 19]: 90
Foxtail, Giant plant response rating [3, 16]: 20
Foxtail, Giant plant response rating [3, 17]: 40
Plant response rating, Foxtail, Giant [3, 18]: 80
Plant response rating, Foxtail, Giant [3, 19]: 100
Morningglory plant response rating [4, 16]: 20
Morningglory plant response rating [4, 17]: 40
Plant response rating, Morningglory [4, 18]: 0
Plant response rating, Morningglory [4, 19]: 40
Pigweed plant response rating [5, 16]: 80
Pigweed plant response rating [5, 17]: 100
Plant response rating, Pigweed [5, 18]: 50
Plant response rating, Pigweed [5, 19]: 100
Velvetleaf plant response rating [6, 16]: 30
Velvetleaf plant response rating [6, 17]: 30
Plant response rating, Velvetleaf [6, 18]: 0
Plant response rating, Velvetleaf [6, 19]: 0
Wheat plant response rating [7, 16]: 20
Wheat plant response rating [7, 17]: 40
Plant response rating, Wheat [7, 18]: 0
Plant response rating, Wheat [7, 19]: 30
Corn plant response rating (corn (Zea mays); [16]): 20
Corn plant response rating (corn (Zea mays); [17]): 30
Plant response rating, Corn (corn (Zea mays); [18]): 0
Plant response rating, Corn (corn (Zea mays); [19]): 0
Plant response rating, Rice (0 to 100 scale, 0 is no effect, 100 is complete control) (rice (Oryza sativa) [8]): 0
Plant response rating, Sedge, Umbrella (0 to 100 scale, 0 is no effect, 100 is complete control) [9]: 70
Plant response rating, Ducksalad (0 to 100 scale, 0 is no effect, 100 is complete control) [10]: 40
Plant response rating, Barnyardgrass (0 to 100 scale, 0 is no effect, 100 is complete control) [11]: 20

CCc1nn(-c2ccc(C(F)(F)F)cc2)nc1Cn1cc(C(F)(F)F)nc1Cl [Compound 122]
Barnyardgrass plant response rating [1, 16]: 40
Barnyardgrass plant response rating [1, 17]: 70
Plant response rating, Barnyardgrass [1, 20]: 20
Plant response rating, Barnyardgrass [1, 21]: 70
Crabgrass, Large plant response rating [2, 16]: 80
Crabgrass, Large plant response rating [2, 17]: 90
Plant response rating, Crabgrass, Large [2, 20]: 90
Plant response rating, Crabgrass, Large [2, 21]: 100
Foxtail, Giant plant response rating [3, 16]: 60
Foxtail, Giant plant response rating [3, 17]: 90
Plant response rating, Foxtail, Giant [3, 20]: 90
Plant response rating, Foxtail, Giant [3, 21]: 100
Morningglory plant response rating [4, 16]: 90
Morningglory plant response rating [4, 17]: 100
Plant response rating, Morningglory [4, 20]: 20
Plant response rating, Morningglory [4, 21]: 50
Pigweed plant response rating [5, 16]: 100
Pigweed plant response rating [5, 17]: 100
Plant response rating, Pigweed [5, 20]: 90
Plant response rating, Pigweed [5, 21]: 100
Velvetleaf plant response rating [6, 16]: 80
Velvetleaf plant response rating [6, 17]: 100
Plant response rating, Velvetleaf [6, 20]: 30
Plant response rating, Velvetleaf [6, 21]: 60
Wheat plant response rating [7, 16]: 20
Wheat plant response rating [7, 17]: 30
Plant response rating, Wheat [7, 20]: 0
Plant response rating, Wheat [7, 21]: 20
Corn plant response rating (corn (Zea mays); [16]): 20
Corn plant response rating (corn (Zea mays); [17]): 30
Plant response rating, Corn (corn (Zea mays); [20]): 10
Plant response rating, Corn (corn (Zea mays); [21]): 20
Plant response rating, Rice (rice (Oryza sativa) [12]; [22]): 25
Plant response rating, Rice (rice (Oryza sativa) [12]; [23]): 30
Plant response rating, Rice (rice (Oryza sativa) [12]; Flood, 31 g ai/ha): 0
Plant response rating, Rice (rice (Oryza sativa) [12]; Flood, 62 g ai/ha): 0
Plant response rating, Sedge, Umbrella [13, 22]: 85
Plant response rating, Sedge, Umbrella [13, 23]: 85
Plant response rating, Sedge, Umbrella ([13]; Flood, 31 g ai/ha): 70
Plant response rating, Sedge, Umbrella ([13]; Flood, 62 g ai/ha): 75
Plant response rating, Ducksalad [14, 22]: 60
Plant response rating, Ducksalad [14, 23]: 65
Plant response rating, Ducksalad ([14]; Flood, 31 g ai/ha): 0
Plant response rating, Ducksalad ([14]; Flood, 62 g ai/ha): 0
Plant response rating, Barnyardgrass [15, 22]: 40
Plant response rating, Barnyardgrass [15, 23]: 40
Plant response rating, Barnyardgrass ([15]; Flood, 31 g ai/ha): 10
Plant response rating, Barnyardgrass ([15]; Flood, 62 g ai/ha): 20
